In data set [1] the test system is different Candida species. Briefly: Biofilm of Candida species. The class given is cell-based. The note with it: found by the present inventors.
The test system of data set [2] is different Candida species. The note with it: WO 2017/174731, WO 2019/068862; cited from earlier work.
The conditions of data set [3]: oral doses between 3 g and 50 g; cited from earlier work.
Data set [4] relates to several strains of bacteria. The data set is described as follows: Biofilm of bacteria. The class given is cell-based. The note with it: found by the present inventors.
Another data set concerns Candida albicans. The note with it: preclinical studies; WO 2017/174731; cited from earlier work.
In data set [5] the test system is several strains of bacteria. The following applies: WO 2017/174731, WO 2019/068862; cited from earlier work.
For data set [6] the following is noted: IPCS 1999; 21CFR184.1318; cited from earlier work.

Each structure is given as a SMILES string.

On to `O=C1O[C@H](CO)[C@@H](O)[C@H](O)[C@H]1O` [GDL, glucono-δ-lactone], for which the formation of biofilm entry in data set [1] and in data set [4] was “has an effect on the formation of biofilm” each time. Moreover, the “presence / formation of biofilm” value in data set [2] is given as “significantly reduced”. Moreover, the signs of toxicity result in data set [3] is reported as “no signs of toxicity”. Also, the “Candida albicans present in the hyphal, i.e. the pathogenic form” value in the data set with Candida albicans is “significant reduction”.

As to `O=C(O)[C@H](O)[C@@H](O)[C@H](O)[C@H](O)CO` [gluconic acid], in data set [5], the presence of biofilm entry was “reduces the presence of biofilm”. Further, in data set [6], the “carcinogenicity, teratogenicity, or genotoxicity” value is “no evidence”. The “presence / formation of biofilm” value in data set [2] is recorded as “reduces the presence of biofilm”.

Source of the values: patent US12496288B2, “Vaginal tablet formulation” (Gedea Biotech AB, priority 2019, dated 2025).
